The nature of data set [1]: Thermal stability: stirred 24 h with or without adsorbent, purity by GC-FID. It counts as physicochemical. The protocol: The samples were stirred for 24 h at the temperatures indicated in Table 4 and then analyzed for purity by GC-FID.
Data set [2] in a line: Kinematic viscosity (AVS 350 Viscosity Timer, glass viscometer). The class given is physicochemical. The protocol: Kinematic viscosity of PE-1 was measured using a Viscosity Timer available under the trade designation “AVS 350” from SI Analytics, College Station, Tex., USA. For temperatures below 0° C., a temperature control bath available from Lawler Manufacturing Corporation, Edison, N.J., USA was used. The viscometer measurements stand and glass viscometer were immersed in a temperature-controlled liquid bath filled with NOVEC 7500. The Lawler temperature bath was fitted with a copper tubing coil for liquid nitrogen cooling with fine temperature control provided by the bath's electronic temperature control heater. The fluid was mechanically stirred to provide uniform temperature in the bath. The bath controls temperature within 0.1° C., measured by the built-in RTD temperature sensor. The sample liquid was added to the viscometer between the two fill lines etched on the viscometer. The AVS 350 automatically pumped the sample fluid above the upper timing mark then released the fluid followed by measurement of efflux times between the upper and lower timing marks. The fluid meniscus was detected by optical sensors as it passed each timing mark. The sample was drawn up and measured repeatedly, averaging multiple measurements.
The glass viscometers were calibrated using certified kinematic viscosity standard fluids available from Cannon Instrument Company, State College, Pa., USA to obtain a calibration constant (centistokes per second) for each viscometer.
The measured kinematic viscosity (centistokes) which is the average efflux time (seconds)×constant (centistokes/second) is presented in Table 3. The data summarized in Table 3 indicates a favorable low temperature liquid range, which renders these materials useful in heat transfer applications.

The structures appear in SMILES notation.

With `FC(F)(F)C(F)(F)C(F)(F)OC/C=C/COC(F)(F)C(F)(F)C(F)(F)F` [PE-1, (E)-1,4-bis(perfluoropropoxy)but-2-ene], the “Purity (thermal stability)” value in data set [1] (4 Angstrom Molecular Sieves 100 mg, 60 °C) is given as 91.9%; in data set [1] (Activated Carbon 100 mg, 60 °C), 91.8%; in data set [1] (Basic Alumina 100 mg, 60 °C) it was 92.0%; in data set [1] (K2CO3 100 mg, 60 °C) it was 91.6%; in data set [1] (No Adsorbent, 25 °C) it was 91.7%; in data set [1] (No Adsorbent, 60 °C), 91.7%. In addition, the “Purity (thermal stability)” value in data set [1] (Silica Gel 100 mg, 60 °C) was 91.7%. Besides, the “Kinematic Viscosity” value in data set [2] (0.0 °C) is 3.16 cSt; in data set [2] (−10.0 °C), 4.28 cSt; in data set [2] (−30.0 °C) it was 10.24 cSt; in data set [2] (−40.0 °C), 17.44 cSt; in data set [2] (−50.0 °C) it was 28.23 cSt; in data set [2] (−60.0 °C) it was 59.59 cSt.

(Values after patent US11535579B2, “Hydrofluoroolefin ethers, compositions, apparatuses and methods for using same” (3M INNOVATIVE PROPERTIES COMPANY, priority 2017, dated 2022).)
